Patent US6326177A, “Method and apparatus for intracellular electro-manipulation” (Eastern Virginia Medical School of the Medical College of …, priority 2000, dated 2001)
“Also recorded” adds a separate entry of the source.

Legend:
eosinophils = assay: Free calcein staining of eosinophil granules after Triton X-100 treatment (fluorescence and Wright-Giemsa microscopy); format: cell-based, human; conditions: 5 minutes
Description: BOTTOM ROW: Wright-Giemsa stained (above) and fluorescent (below) images of eosinophils treated with 1 μM free calcein+0.005% Triton X-100 for 5 minutes (left), eosinophils treated with 0.01% Triton X-100+1 μM free calcein (5 minutes) (center) and eosinophils incubated in 0.05% Triton X-100+1 μM free calcein for 5 minutes.
Free calcein is a highly fluorescent modified fluorescein with 6 negative and 2 positive charges that is membrane impermeant. In its methyl ester form, calcein-AM, it is non-fluorescent and membrane permeable. When used as a fluorescent stain for cells, calcein-AM passes through the surface membrane and is cleaved to free calcein+the methyl ester residue by intracellular esterase activities. This modification traps the free calcein in the cytoplasm of the cell, and retention of the free calcein is a common criterion for intactness of the surface membrane.

PMN = assay: Triton X-100 effect on PMN in the free calcein staining experiment; format: cell-based, human; conditions: 5 minutes
Description: Aliquots of an eosinophil-enriched leukocyte preparation (65% eosinophils) were exposed to 1 μM free calcein in HBSSw/o plus increasing amounts (0%-0.05%) Triton X-100 (5 minutes, 25° C.) and examined microscopically. […] Red eosinophil autofluorescence was readily visible and was also visible in all conditions up to and including the free calcein +0.01% Triton exposure. […] After Wright-Giemsa staining, these were recognized to be the residual nuclei of fully detergent-solubilized cells (pale green fluorescence) with associated eosinophilic granules corresponding exactly to the punctate areas of bright fluorescence (see FIG. 26).
Calcein-AM stained eosinophils trap free calcein in their cytoplasm after staining (left), and the intracellular free calcein is excluded from the eosinophil's large granules as shown on the left.

[1] = 0.001% Triton X-100 + 1 μM free calcein
[2] = 0.005% Triton X-100 + 1 μM free calcein

Compound | calcein staining of eosinophils exposed to free calcein without Triton (eosinophils; 1 μM free calcein in HBSSw/o, 0% Triton, 25° C.) | free calcein staining / detergent effect on eosinophils (eosinophils; [1]) | free calcein staining / detergent effect on eosinophils (eosinophils; [2]) | free calcein staining / detergent effect on eosinophils (eosinophils; 0.01% Triton X-100 + 1 μM free calcein) | free calcein staining / detergent effect on eosinophils (eosinophils; 0.05% Triton X-100 + 1 μM free calcein) | free calcein staining / detergent effect on PMN (PMN; [1]) | free calcein staining / detergent effect on PMN (PMN; [2])
O=C(O)CN(CC(=O)O)Cc1cc2c(cc1O)Oc1cc(O)c(CN(CC(=O)O)CC(=O)O)cc1C21OC(=O)c2ccccc21 [free calcein] | no calcein staining; also recorded: incapable of staining eosinophil cytoplasm |  |  |  |  |  | 
Triton X-100 |  | free calcein continues to be excluded from eosinophils | the morphology of some eosinophils suggests partial detergent solubilization which is accompanied by bright free calcein staining of eosinophil granules | occasional eosinophils showed an isolated bright green granule within the eosinophil autofluorescence pattern; also recorded: all eosinophils show nuclear changes suggestive of detergent effect, and many contain 1-2 bright granules on a background of red autofluorescence | many discrete areas of pale green fluorescence with overlying, bright green punctate areas of fluorescence; also recorded: only eosinophil nuclear remnants are seen | stains the fine granules of a PMN showing obvious detergent effects | detergent solubilized PMN show very fine, fluorescent "calcein sand" staining patterns
